Where two headings read alike, the source gives them in different places. Values belong to the molecule of their own block, whether it stands above or below them.
How the values were obtained:
[1] = system: YB-1; assay: Western blot/immunocytochemistry of YB-1 in melanoma cells; format: cell-based, human
Description: WM35 and A375 cells were obtained from ATCC (Manassas, VA), NCI/ADR-Res cells from NCI (Developmental Therapeutics Program, Frederick, MD) while 451Lu cells were provided by Dr. Meenhard Herlyn (Wistar Institute, PA). Authentication report was provided by ATCC and NCI for post-freeze viability, growth properties, morphology, mycoplasma contamination, species determination (cytochrome c oxidase I assay and STR analysis), sterility test and human pathogenic virus testing. Cells were frozen in aliquots in liquid nitrogen and cultured within six months. 451Lu cells were authenticated upon receipt using STR analysis and all cell lines are regularly tested for mycoplasma contamination using MycoAlert Mycoplasma Detection Kit from Lonza (Basel, Switzerland). WM35, A375 cells were cultured in DMEM, NCI/ADR-Res in RPMI and 451Lu in MEM with 10% FBS and 1% penicillin-streptomycin, at 37 °C with 5% CO2 in a humid environment. […]
For immunohistochemistry, sections from melanoma constructs, fixed in 10% formalin were deparaffinized and rehydrated in xylene and a graded series of ethanol and blocked in 2% goat serum/PBS for 30 min. After incubation with specific primary antibody overnight and biotinylated secondary antibody for 1 h, slides were counterstained with hematoxylin and immunoreactive complexes were detected using 3,3′-diaminobenzidene (Dako Corp., CA). […]

[2] = system: RSK; assay: Western blot of RSK phosphorylation in A375 cells; format: cell-based, human; details: fisetin 60 µM:24 h, FR180204 10 µM
Description: WM35 and A375 cells were obtained from ATCC (Manassas, VA), NCI/ADR-Res cells from NCI (Developmental Therapeutics Program, Frederick, MD) while 451Lu cells were provided by Dr. Meenhard Herlyn (Wistar Institute, PA). Authentication report was provided by ATCC and NCI for post-freeze viability, growth properties, morphology, mycoplasma contamination, species determination (cytochrome c oxidase I assay and STR analysis), sterility test and human pathogenic virus testing. Cells were frozen in aliquots in liquid nitrogen and cultured within six months. 451Lu cells were authenticated upon receipt using STR analysis and all cell lines are regularly tested for mycoplasma contamination using MycoAlert Mycoplasma Detection Kit from Lonza (Basel, Switzerland). WM35, A375 cells were cultured in DMEM, NCI/ADR-Res in RPMI and 451Lu in MEM with 10% FBS and 1% penicillin-streptomycin, at 37 °C with 5% CO2 in a humid environment. After treatment of cells with/without fisetin and/or inhibitors, whole cell lysates were prepared and western blot analysis was performed as described elsewhere.

[3] = target: T1, RSK2 binding to YB-1 (Homo sapiens, UniProt P51812); assay: SPR competition assay, RSK2 pre-incubated with fisetin over immobilized YB-1; details: RSK2 100 nM pre-incubated with fisetin 1 and 10 µM
T1 construct: recombinant human proteins [full length and HIS-tag]; (Life Technologies, Italy); His; purchased Life Technologies, Italy (RSK2); Abnova Corporation, Taiwan (YB-1)
Experimental: (§1) Binding experiments were performed using a Biacore T-200 instrument (Uppsala, Sweden) at 25 °C. 60 response units (RU) of the YB-1 human recombinant protein with GST-tag at N-terminal (51–139 aa, 35 kDa including GST tag, from Abnova Corporation, Taiwan) were directly immobilized on the EDC/NHS activated flow cell2 of the CM5 chip (GE certified) in water. The unoccupied sites were blocked with 1 M ethanol amine. The analytes RPS6KA1 (RSK1, 88.5 kDa) and RPS6KA3 (RSK2, 86.3 kDa) recombinant human proteins [full length and HIS-tag] (Life Technologies, Italy) were flown over the chip at variable concentrations in 10 mM sodium acetate buffer (pH 5.0), with flow rate of 5ul/min, at a single analyte concentration. Binding of analyte to the immobilized protein was monitored in real time to obtain on (ka) and off (kd) rates. The equilibrium constant (KD) was calculated from the observed ka and kd or by steady state kinetics as for the small molecules. Stocks were prepared in 100% DMSO, and further dilutions were made in assay buffer containing 10 mM HEPES buffer (pH 7.4), 150 mM NaCl, 3 mM EDTA, 0.05% P20 (polyoxyethylenesorbitan) and 0.1% BSA. Full kinetics analysis was performed at using analyte concentrations 50 nM (or 100 nM without BSA) to 0, run with serial dilutions, 50, 25, 12.5, 6.25, 3.125, 0 nM, and a flow rate of 30 ul/min. […]

[4] = target: T2, RSK3 (Homo sapiens, UniProt Q15349); assay: Radiometric in vitro kinase activity assay (Reaction Biology); format: biochemical; design: purchased Reaction Biology Corporation (Malvern, PA), contract assay; details: 10-dose, 3-fold serial dilution from 100 μM; 30 μM ATP; read-out: IC50 (M), kinase activity inhibition RSK3
Target sequence in this assay (Q15349 whole entry): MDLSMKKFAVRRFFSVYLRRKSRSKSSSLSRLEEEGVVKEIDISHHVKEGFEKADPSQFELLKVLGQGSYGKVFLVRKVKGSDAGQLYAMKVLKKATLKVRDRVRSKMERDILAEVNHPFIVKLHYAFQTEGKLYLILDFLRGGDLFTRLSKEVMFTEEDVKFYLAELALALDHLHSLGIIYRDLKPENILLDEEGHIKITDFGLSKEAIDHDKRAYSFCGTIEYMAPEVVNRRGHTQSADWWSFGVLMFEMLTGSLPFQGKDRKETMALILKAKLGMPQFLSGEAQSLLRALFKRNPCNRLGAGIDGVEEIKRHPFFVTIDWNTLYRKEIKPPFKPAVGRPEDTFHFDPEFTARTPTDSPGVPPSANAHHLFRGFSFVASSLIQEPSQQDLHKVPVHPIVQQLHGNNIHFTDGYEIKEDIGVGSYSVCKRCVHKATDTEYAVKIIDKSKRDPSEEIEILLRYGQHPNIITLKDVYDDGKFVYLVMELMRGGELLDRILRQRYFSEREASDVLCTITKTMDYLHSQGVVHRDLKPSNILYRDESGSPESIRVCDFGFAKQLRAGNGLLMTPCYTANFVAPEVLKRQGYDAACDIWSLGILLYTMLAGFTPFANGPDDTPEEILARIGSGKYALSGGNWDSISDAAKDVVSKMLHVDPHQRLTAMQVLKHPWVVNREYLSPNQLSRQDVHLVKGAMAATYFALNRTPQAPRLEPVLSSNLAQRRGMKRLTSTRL

[5] = target: T3, RSK1 (Homo sapiens, UniProt Q15418); assay: biochemical
Experimental: In vitro kinase activity profiling of RSK isoforms was performed at Reaction Biology Corporation (Malvern, PA). Briefly, the specific kinase/substrate pair alongwith required cofactors was prepared in reaction buffer.
Target sequence in this assay (Q15418 whole entry, canonical isoform): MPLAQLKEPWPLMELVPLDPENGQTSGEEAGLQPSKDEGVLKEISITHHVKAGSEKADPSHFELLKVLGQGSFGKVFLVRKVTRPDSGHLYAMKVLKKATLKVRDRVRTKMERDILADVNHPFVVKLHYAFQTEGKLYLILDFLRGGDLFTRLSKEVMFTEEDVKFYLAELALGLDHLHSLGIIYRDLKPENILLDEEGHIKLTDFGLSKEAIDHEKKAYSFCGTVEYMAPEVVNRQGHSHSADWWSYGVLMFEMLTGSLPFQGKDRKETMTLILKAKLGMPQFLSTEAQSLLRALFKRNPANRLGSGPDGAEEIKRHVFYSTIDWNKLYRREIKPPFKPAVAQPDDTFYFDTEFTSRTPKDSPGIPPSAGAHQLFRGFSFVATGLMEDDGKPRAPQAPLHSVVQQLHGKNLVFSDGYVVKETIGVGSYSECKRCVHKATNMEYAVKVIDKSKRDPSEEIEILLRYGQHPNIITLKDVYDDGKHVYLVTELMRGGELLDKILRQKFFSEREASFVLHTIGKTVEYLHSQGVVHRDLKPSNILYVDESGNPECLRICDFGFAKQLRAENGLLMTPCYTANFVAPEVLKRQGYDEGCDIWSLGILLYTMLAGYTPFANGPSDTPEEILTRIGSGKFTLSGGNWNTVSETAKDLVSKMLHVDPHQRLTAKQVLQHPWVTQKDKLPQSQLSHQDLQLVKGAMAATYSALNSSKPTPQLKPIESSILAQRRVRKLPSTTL

[6] = system: 451Lu melanoma cells; assay: 451Lu melanoma xenograft in athymic nude mice; format: in vivo; details: day 35; fisetin 1 mg/animal i.p. thrice weekly; vemurafenib 2 mg/animal oral gavage 5 days/week; control 1179.7 mm^3
Experimental: Athymic (nu/nu) female nude mice (Harlan, Madison, WI), 4–5 weeks old, were housed under pathogen-free conditions, in the University of Wisconsin Animal Resource Facility, with a 12-hour light/12-hour dark schedule and fed an autoclaved diet ad libitum. All animal experiments were approved by and carried out according to Institutional Animal Care and Use Committee guidelines, University of Wisconsin-Madison, protocol # M005212. Briefly, 1 × 10^6 451Lu cells were injected s/c into each flank of 18 mice randomly divided into 3 groups. The first group received intraperitoneal injection of fisetin 40 mg/kg b.wt. (1 mg/animal) thrice weekly, the second group received vemurafenib by oral gavage 80 mg/kg b.wt. (2 mg/animal) dissolved in DMSO, 5 days/week, while the third group served as the DMSO treated control group. Mice weight and tumor volumes were recorded twice weekly. The animals were sacrificed when tumors reached a volume of 1200 mm^3 in the control group. Samples were collected and stored at −80 °C until further analysis.

[7] = system: NCI/ADR-Res cells; assay: MTT cell viability; format: cell-based, human; details: NCI/ADR-Res ovarian tumor cells
Experimental: Cells seeded in 24-well plates were treated at 70% confluence with/without fisetin and/or vemurafenib for 24 hours. Cell viability was determined by MTT assay as described.

[8] = target: T3, RSK1; assay: KINOMEscan competition binding assay; design: RSK1 (Kinase Domain 1-N-terminal): Average Kd (nM): 8100; RSK1 (Kinase Domain 2-C-terminal): Average Kd (nM): 2500; purchased KINOMEscan screening platform (San Diego, CA), contract assay; details: duplicate, top concentration 100 µM
Experimental: (§2) The KINOMEscan screening platform (San Diego, CA) was employed to quantitatively measure interactions between fisetin and RSK isoforms. Binding constants (Kds) were calculated by measuring the amount of kinase captured on solid support as a function of the test compound concentration, using the Hill equation. The Hill Slope was set to −1. Curves were fitted using a non-linear least square fit with the Levenberg-Marquardt algorithm.

[9] = target: T2, RSK3; assay: KINOMEscan competition binding assay; design: RSK3 (Kinase Domain 1-N-terminal): Average Kd (nM): 5200; RSK3 (Kinase Domain 2-C-terminal): Average Kd (nM): 5800; purchased KINOMEscan screening platform (San Diego, CA), contract assay; details: duplicate, top concentration 100 µM
Experimental: as §2

[10] = target: T4, RSK2 (Homo sapiens, UniProt P51812); assay: Radiometric in vitro kinase activity assay (Reaction Biology); format: biochemical; design: purchased Reaction Biology Corporation (Malvern, PA), contract assay; details: 10-dose, 3-fold serial dilution from 100 μM; 30 μM ATP; read-out: IC50 (M), kinase activity inhibition RSK2
Target sequence in this assay (P51812 whole entry): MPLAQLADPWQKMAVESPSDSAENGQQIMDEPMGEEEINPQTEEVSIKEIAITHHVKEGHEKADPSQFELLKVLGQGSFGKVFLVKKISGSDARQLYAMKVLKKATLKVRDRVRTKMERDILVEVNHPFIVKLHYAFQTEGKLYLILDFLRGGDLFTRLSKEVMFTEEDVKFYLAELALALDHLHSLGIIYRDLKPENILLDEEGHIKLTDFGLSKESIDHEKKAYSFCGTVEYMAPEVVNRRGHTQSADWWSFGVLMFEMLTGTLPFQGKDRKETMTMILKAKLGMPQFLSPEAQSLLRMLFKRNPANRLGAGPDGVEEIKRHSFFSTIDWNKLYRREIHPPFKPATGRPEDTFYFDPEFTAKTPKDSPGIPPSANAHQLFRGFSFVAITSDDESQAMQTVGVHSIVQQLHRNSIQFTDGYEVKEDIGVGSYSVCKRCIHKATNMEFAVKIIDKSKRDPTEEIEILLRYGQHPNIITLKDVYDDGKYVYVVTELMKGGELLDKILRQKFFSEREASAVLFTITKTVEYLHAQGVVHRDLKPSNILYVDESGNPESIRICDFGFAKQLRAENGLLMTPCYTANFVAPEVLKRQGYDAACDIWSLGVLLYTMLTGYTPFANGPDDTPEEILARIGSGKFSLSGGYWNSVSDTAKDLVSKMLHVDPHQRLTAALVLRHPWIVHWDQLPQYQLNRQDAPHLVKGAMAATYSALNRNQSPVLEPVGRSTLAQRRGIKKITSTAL

[11] = target: ERK1 (Homo sapiens, UniProt P27361); assay: Radiometric in vitro kinase activity assay; format: biochemical
[12] = target: T4, RSK2; assay: KINOMEscan competition binding assay; design: purchased KINOMEscan screening platform (San Diego, CA), contract assay
Experimental: as §2

[13] = target: ERK2 (Homo sapiens, UniProt P28482); assay: Radiometric in vitro kinase activity assay; format: biochemical
[14] = target: T5, YB-1 human recombinant protein (Homo sapiens, UniProt P67809); assay: SPR (Biacore) full kinetics, RSK analytes over immobilized YB-1; details: without BSA; analyte 100-0 nM; 25 °C; read-out: KD for binding to immobilized YB-1
T5 construct: (51–139 aa, 35 kDa including GST tag, from Abnova Corporation, Taiwan); purchased Abnova Corporation, Taiwan
Experimental: as §1

ERK1, sequence (P27361 whole entry): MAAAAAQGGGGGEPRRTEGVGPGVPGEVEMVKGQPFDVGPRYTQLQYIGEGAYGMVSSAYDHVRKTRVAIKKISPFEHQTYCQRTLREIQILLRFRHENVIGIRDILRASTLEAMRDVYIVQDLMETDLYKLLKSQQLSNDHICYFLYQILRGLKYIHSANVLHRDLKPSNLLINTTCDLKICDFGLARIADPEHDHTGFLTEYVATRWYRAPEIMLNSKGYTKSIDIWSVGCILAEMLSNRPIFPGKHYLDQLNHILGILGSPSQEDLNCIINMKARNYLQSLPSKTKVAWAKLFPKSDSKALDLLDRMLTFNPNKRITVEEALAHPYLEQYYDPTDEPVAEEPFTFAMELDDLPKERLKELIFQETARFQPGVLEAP
T5 sequence (P67809 51-139): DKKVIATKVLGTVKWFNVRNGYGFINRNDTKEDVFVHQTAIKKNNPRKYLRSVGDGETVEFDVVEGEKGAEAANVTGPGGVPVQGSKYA
ERK2, sequence (P28482 whole entry): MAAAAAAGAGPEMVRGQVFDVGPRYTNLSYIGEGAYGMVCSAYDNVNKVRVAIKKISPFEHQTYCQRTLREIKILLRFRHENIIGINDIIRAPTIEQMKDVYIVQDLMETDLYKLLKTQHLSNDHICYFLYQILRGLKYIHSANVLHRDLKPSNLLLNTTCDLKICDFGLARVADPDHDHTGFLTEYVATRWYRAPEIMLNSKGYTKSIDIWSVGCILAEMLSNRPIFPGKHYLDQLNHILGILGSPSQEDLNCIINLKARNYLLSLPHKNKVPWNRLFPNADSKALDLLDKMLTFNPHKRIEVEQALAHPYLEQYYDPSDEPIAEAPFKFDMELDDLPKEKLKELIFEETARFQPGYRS
T1 sequence (P51812 whole entry): as the sequence (P51812 whole entry) above

Molecule: CC(C)CCN1c2nc(Nc3cc(F)c(O)c(F)c3)ncc2N(C)C(=O)C1C (stereo not drawn) [BI-D1870, reference compound]
YB-1 expression ([1]; A375 cells, in comparison to fisetin (60 μM:24 h)): modest effect

Molecule: Nc1[nH]nc2nnc(-c3c(-c4ccccc4)nn4ccccc34)cc12 [FR180204, reference compound]
RSK phosphorylation at threonine359/serine363 [2]: significant decrease

effect on binding of RSK2 to YB-1 [3]: promote its binding to YB-1 | IC50 [4]: 8.91e-07 M | IC50 [5]: 3.79 µM | Kd ([8]; C-terminal kinase domain, read-out: Average Kd, RSK1 (Kinase Domain 2-C-terminal)): 2.5 µM | Kd ([8]; N-terminal kinase domain, read-out: Average Kd, RSK1 (Kinase Domain 1-N-terminal)): 8.1 µM | Kd ([9]; C-terminal kinase domain, read-out: Average Kd, RSK3 (Kinase Domain 2-C-terminal)): 5.8 µM | Kd ([9]; N-terminal kinase domain, read-out: Average Kd, RSK3 (Kinase Domain 1-N-terminal)): 5.2 µM | IC50 [10]: 2.78e-06 M | IC50 [11]: 8.5 µM | Kd ([12]; C-terminal kinase domain, duplicate, top concentration 100 µM, read-out: Average Kd, RSK2 (Kinase Domain 2-C-terminal)): 8.4 µM | Kd ([12]; N-terminal kinase domain, duplicate, top concentration 100 µM, read-out: Average Kd, RSK2 (Kinase Domain 1-N-terminal)): 0.05 µM | Kd ([12]; single replicate curve, C-terminal kinase domain, read-out: Kd, RSK2(Kin.Dom.2-C-terminal), Replicate ID = 1): 8.1 µM | IC50 [13]: 9.88 µM
Molecule: O=c1c(O)c(-c2ccc(O)c(O)c2)oc2cc(O)ccc12 [Fisetin, fisetin]
YB-1 phosphorylation and total protein levels ([1]; A375 and 451Lu cells, 0–80 µM, 24 h): dose-dependent decrease in YB-1 phosphorylation | average tumor volume [6]: 789.3 mm^3 | cell viability [7]: reduced viability | RSK phosphorylation at threonine359/serine363 [2]: significant decrease

Molecule: CCCS(=O)(=O)Nc1ccc(F)c(C(=O)c2c[nH]c3ncc(-c4ccc(Cl)cc4)cc23)c1F [vemurafenib, reference compound]
average tumor volume [6]: 641.7 mm^3

Kd [14]: 0.534 µM
Molecule: RSK2: recombinant human protein RPS6KA3, full length, HIS-tag, 86.3 kDa; SPR analyte

Source: publication PMC6200766, “Fisetin targets YB-1/RSK axis independent of its effect on ERK signaling: insights from in vitro and in vivo melanoma models” (Scientific Reports, 2018)
